# In PubChem BioAssay AID256 (DTP/NCI, 2004):
# Where “and” joins values, the source holds several entries; their conditions need not be identical. Equal entries are not always repeated. Toxic doses and inconclusive results are not listed.
# Tested on: CD2F1 mice, L1210 leukemia ip, survival T/C
# Assay: NCI In Vivo Anticancer Drug Screen. Data for tumor model L1210 Leukemia (intraperitoneal) in CD2F1 (CDF1) mice
# Details: endpoint: mean survival time, higher = longer survival
# Procedure, shortened: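 Mice carrying a transplanted tumor received test compound or vehicle alone. The value is the measurement in the treated group divided by that in the vehicle-treated control group.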
# [1] = dose: 100.0 mg/kg/injection, schedule: Q04DX003 (ip), vehicle: saline with Tween-80
# [2] = dose: 200.0 mg/kg/injection, schedule: Q04DX003 (ip), vehicle: saline with Tween-80
# [3] = dose: 400.0 mg/kg/injection, schedule: Q04DX003 (ip), vehicle: saline with Tween-80
# [4] = dose: 25.0 mg/kg/injection, schedule: Q04DX003 (ip), vehicle: saline
# [5] = dose: 50.0 mg/kg/injection, schedule: Q04DX003 (ip), vehicle: saline
# [6] = dose: 100.0 mg/kg/injection, schedule: Q01DX009 (ip), vehicle: saline
# [7] = dose: 100.0 mg/kg/injection, schedule: Q04DX003 (ip), vehicle: saline
# [8] = dose: 200.0 mg/kg/injection, schedule: Q01DX009 (ip), vehicle: saline
# [9] = dose: 400.0 mg/kg/injection, schedule: Q01DX009 (ip), vehicle: saline
# [10] = dose: 200.0 mg/kg/injection, schedule: Q01DX009 (ip), vehicle: saline with Tween-80
# [11] = dose: 5.0 mg/kg/injection, schedule: Q01DX009 (ip), vehicle: saline with Tween-80
# [12] = dose: 10.0 mg/kg/injection, schedule: Q01DX009 (ip), vehicle: saline with Tween-80
smiles,measurement,setting,value
COc1ccc(Nc2ccnc3cc(Cl)ccc23)cc1CN(CCCl)CCCl,T/C,"dose: 6.25 mg/kg/injection, schedule: Q01DX009 (ip), vehicle: saline",117 % of control
same,T/C,"dose: 25.0 mg/kg/injection, schedule: Q01DX009 (ip), vehicle: saline",88 % of control
CC(C)(C)C(=O)CC(=O)C(C)(C)C.CC(C)(C)C(=O)CC(=O)C(C)(C)C.CC(C)(C)C(=O)CC(=O)C(C)(C)C.[Dy],T/C,[1],97 % of control
same,T/C,[2],94 % of control
same,T/C,[3],94 % of control
Cc1nc(C(N)=O)c(=O)[nH]c1C,T/C,[4],102 % of control
same,T/C,[5],107 % of control
same,T/C,[6],111 % of control
same,T/C,[7],101 % of control
same,T/C,[8],100 % of control
same,T/C,[9],97 % of control
CC(=O)OC1COC(n2cnc3c(=O)[nH]cnc32)C(OC(C)=O)C1OC(C)=O (configuration not stated),T/C,"dose: 12.5 mg/kg/injection, schedule: Q01DX001 (ip), vehicle: saline",100 % of control and 109 % of control
same,T/C,"dose: 25.0 mg/kg/injection, schedule: Q01DX001 (ip), vehicle: saline",100 % of control and 106 % of control
same,T/C,"dose: 50.0 mg/kg/injection, schedule: Q01DX001 (ip), vehicle: saline",118 % of control and 103 % of control
same,T/C,"dose: 100.0 mg/kg/injection, schedule: Q01DX001 (ip), vehicle: saline",97 % of control and 106 % of control
O=C1OC(OC(=O)c2ccccc2)C(Nc2ccccc2)=C1Br (configuration not stated),T/C,"dose: 100.0 mg/kg/injection, schedule: Q01DX009 (ip), vehicle: saline with Tween-80",101 % of control
same,T/C,[10],101 % of control
same,T/C,"dose: 400.0 mg/kg/injection, schedule: Q01DX009 (ip), vehicle: saline with Tween-80",97 % of control
[Cl][Pt+2][Cl].[NH-]c1cc(Cl)c(Cl)cc1[NH-],T/C,"dose: 2.5 mg/kg/injection, schedule: Q01DX009 (ip), vehicle: saline with Tween-80",107 % of control
same,T/C,[11],105 % of control
same,T/C,[12],111 % of control
same,T/C,"dose: 20.0 mg/kg/injection, schedule: Q01DX009 (ip), vehicle: saline with Tween-80",106 % of control and 112 % of control
same,T/C,"dose: 40.0 mg/kg/injection, schedule: Q01DX009 (ip), vehicle: saline with Tween-80",105 % of control and 112 % of control
same,T/C,"dose: 80.0 mg/kg/injection, schedule: Q01DX009 (ip), vehicle: saline with Tween-80",110 % of control
same,T/C,"dose: 160.0 mg/kg/injection, schedule: Q01DX009 (ip), vehicle: saline with Tween-80",104 % of control
same,T/C,"dose: 320.0 mg/kg/injection, schedule: Q01DX009 (ip), vehicle: saline with Tween-80",107 % of control
CN(C)N=Nc1ccccc1C(=O)NCC(F)(F)F,T/C,"dose: 18.75 mg/kg/injection, schedule: Q01DX009 (ip), vehicle: Klucel (hydroxypropylcellulose) (HPC)",96 % of control and 106 % of control
same,T/C,"dose: 37.5 mg/kg/injection, schedule: Q01DX009 (ip), vehicle: Klucel (hydroxypropylcellulose) (HPC)",93 % of control and 106 % of control
same,T/C,"dose: 75.0 mg/kg/injection, schedule: Q01DX009 (ip), vehicle: Klucel (hydroxypropylcellulose) (HPC)",96 % of control and 100 % of control
same,T/C,"dose: 150.0 mg/kg/injection, schedule: Q01DX009 (ip), vehicle: Klucel (hydroxypropylcellulose) (HPC)",100 % of control and 102 % of control
same,T/C,"dose: 300.0 mg/kg/injection, schedule: Q01DX009 (ip), vehicle: Klucel (hydroxypropylcellulose) (HPC)",100 % of control and 103 % of control
COc1ccc2c(c1)CCC1=C2CCC2(C)C(=O)NC(=O)N12 (configuration not stated),T/C,[1],98 % of control
same,T/C,[2],96 % of control
same,T/C,[3],98 % of control
C[S+]1C=C(c2ccccc2)C=C(c2ccccc2)C1 (configuration not stated),T/C,"dose: 7.5 mg/kg/injection, schedule: Q01DX001 (ip), vehicle: saline with Tween-80",114 % of control
O=[N+]([O-])C1CC=CCC1C(Cl)(Cl)Cl (configuration not stated),T/C,[11],97 % of control
same,T/C,[12],103 % of control
CC1(C)CC23C4COC(=O)C2CCC1C3CC4=O (configuration not stated),T/C,"dose: 3.12 mg/kg/injection, schedule: Q01DX009 (ip), vehicle: DMSO",95 % of control
same,T/C,"dose: 6.25 mg/kg/injection, schedule: Q01DX009 (ip), vehicle: DMSO",96 % of control and 98 % of control
same,T/C,"dose: 12.5 mg/kg/injection, schedule: Q01DX009 (ip), vehicle: DMSO",90 % of control and 94 % of control
same,T/C,"dose: 25.0 mg/kg/injection, schedule: Q01DX009 (ip), vehicle: DMSO",94 % of control and 98 % of control
same,T/C,"dose: 50.0 mg/kg/injection, schedule: Q01DX009 (ip), vehicle: DMSO",104 % of control
same,T/C,"dose: 100.0 mg/kg/injection, schedule: Q01DX009 (ip), vehicle: DMSO",93 % of control
same,T/C,"dose: 200.0 mg/kg/injection, schedule: Q01DX009 (ip), vehicle: DMSO",112 % of control
c1cc2c(c(NC3=NCCN3)c1)CCCC2,T/C,"dose: 12.5 mg/kg/injection, schedule: Q01DX009 (ip), vehicle: saline with Tween-80",96 % of control
same,T/C,"dose: 25.0 mg/kg/injection, schedule: Q01DX009 (ip), vehicle: saline with Tween-80",100 % of control
same,T/C,"dose: 50.0 mg/kg/injection, schedule: Q01DX009 (ip), vehicle: saline with Tween-80",111 % of control
O=[N+]([O-])CC(O)C(O)C(O)C(O)CO (configuration not stated),T/C,[6],107 % of control
same,T/C,[8],112 % of control
same,T/C,[9],107 % of control
CC(C)(C)C1=CC(=O)C(Cl)(C(C)(C)C)C(Cl)C1=O (configuration not stated),T/C,"dose: 25.0 mg/kg/injection, schedule: Q01DX001 (ip), vehicle: saline with Tween-80",97 % of control
same,T/C,"dose: 50.0 mg/kg/injection, schedule: Q01DX001 (ip), vehicle: saline with Tween-80",93 % of control
CCC(C)N(C)/N=N/c1nc[nH]c1C(N)=O (configuration not stated),T/C,[10],104 % of control
O=C(O)C(O)C(=O)O.[NH2-].[NH2-].[Pt+2],T/C,[4],108 % of control
same,T/C,[5],114 % of control
same,T/C,[7],120 % of control
O=C(N/N=C/c1ccc([N+](=O)[O-])cc1[N+](=O)[O-])c1ccncc1,T/C,"dose: 12.5 mg/kg/injection, schedule: Q01DX009 (ip), vehicle: other",95 % of control
same,T/C,"dose: 25.0 mg/kg/injection, schedule: Q01DX009 (ip), vehicle: other",91 % of control
same,T/C,"dose: 50.0 mg/kg/injection, schedule: Q01DX009 (ip), vehicle: other",91 % of control
same,T/C,"dose: 100.0 mg/kg/injection, schedule: Q01DX009 (ip), vehicle: other",89 % of control
same,T/C,"dose: 200.0 mg/kg/injection, schedule: Q01DX009 (ip), vehicle: other",93 % of control
Cc1ccc(S(=O)(=O)Nc2ccccc2N(CCN(CCOS(=O)(=O)c2ccc(C)cc2)S(=O)(=O)c2ccc(C)cc2)S(=O)(=O)c2ccc(C)cc2)cc1,T/C,"dose: 25.0 mg/kg/injection, schedule: Q04DX003 (ip), vehicle: saline with Tween-80",95 % of control
same,T/C,"dose: 50.0 mg/kg/injection, schedule: Q04DX003 (ip), vehicle: saline with Tween-80",100 % of control
same,T/C,[1],91 % of control
same,T/C,[2],95 % of control
O=C1C(N2CC2)=C(N2CCCC(O)C2)C(=O)C(N2CC2)=C1N1CCCC(O)C1 (configuration not stated),T/C,"dose: 2.0 mg/kg/injection, schedule: Q01DX009 (ip), vehicle: saline",162 % of control and 173 % of control
CCOC(=O)C(C(C)=O)C(C(C)=O)C(=O)OCC (configuration not stated),T/C,"dose: 75.0 mg/kg/injection, schedule: Q01DX009 (ip), vehicle: saline with Tween-80",97 % of control
same,T/C,[1],98 % of control
same,T/C,"dose: 150.0 mg/kg/injection, schedule: Q01DX009 (ip), vehicle: saline with Tween-80",97 % of control
same,T/C,[2],95 % of control
same,T/C,"dose: 300.0 mg/kg/injection, schedule: Q01DX009 (ip), vehicle: saline with Tween-80",97 % of control
same,T/C,[3],106 % of control
CN(Cc1ccc2nc(N)nc(N)c2n1)c1ccc(C(=O)NC(CCC(=O)O)C(=O)O)cc1 (configuration not stated),T/C,"dose: 0.12 mg/kg/injection, schedule: Q01DX005 (ip), vehicle: sodium bicarbonate",150 % of control
same,T/C,"dose: 0.5 mg/kg/injection, schedule: Q01DX005 (ip), vehicle: sodium bicarbonate",115 % of control
same,T/C,"dose: 31.25 micrograms/kg/injection, schedule: Q01DX005 (ip), vehicle: sodium bicarbonate",101 % of control
same,T/C,"dose: 62.5 micrograms/kg/injection, schedule: Q01DX005 (ip), vehicle: sodium bicarbonate",116 % of control
same,T/C,"dose: 125.0 micrograms/kg/injection, schedule: Q01DX005 (ip), vehicle: sodium bicarbonate",122 % of control
CCCCCCCCCCCCCC(=O)O.[Pb],T/C,"dose: 75.0 mg/kg/injection, schedule: Q01DX001 (ip), vehicle: other",98 % of control
same,T/C,"dose: 150.0 mg/kg/injection, schedule: Q01DX001 (ip), vehicle: other",101 % of control
same,T/C,"dose: 300.0 mg/kg/injection, schedule: Q01DX001 (ip), vehicle: other",101 % of control
Nc1nc(N)c2nc(NCc3ccc(C(=O)NC(CCC(=O)O)C(=O)O)cc3)cnc2n1 (configuration not stated),T/C,"dose: 50.0 mg/kg/injection, schedule: Q01DX009 (ip), vehicle: saline",103 % of control
same,T/C,[5],97 % of control
same,T/C,[6],103 % of control
same,T/C,[7],96 % of control
same,T/C,[8],116 % of control
same,T/C,"dose: 200.0 mg/kg/injection, schedule: Q04DX003 (ip), vehicle: saline",96 % of control
same,T/C,"dose: 400.0 mg/kg/injection, schedule: Q04DX003 (ip), vehicle: saline",100 % of control
